Key:
Plutella xylostella = assay: Insecticidal test against Plutella xylostella; settings: 500 ppm drug solution, Chinese cabbage seedlings with eggs immersed about 30 sec, six days after immersion, 25° C.
Dirofilaria immitis = assay: Influence evaluation test on the growth of Dirofilaria immitis; type: cell-based; settings: 168 h, read-out: development inhibition rate from the L3 stage larva to the L4-stage larva
Laodelphax striatellus = assay: Insecticidal test against Laodelphax striatellus; settings: 500 ppm drug solution, rice seedlings immersed 30 seconds, three-instar insects, eight days after inoculation
[1] = test system: Frankliniella occidentalis; assay: Insecticidal test against Frankliniella occidentalis; settings: 500 ppm drug solution sprayed on Phaseolus vulgaris leaf pieces with hatched larvae, four days after treatment

SMILES | rating of assessment (corrected mortality) against Plutella xylostella (Plutella xylostella) | other results
O=C(Nc1ccc(F)cc1)C1=C(O)CC(c2ccc(C(F)(F)F)c(Cl)c2)OC1=O (centres unmarked) [1-1, 6-(3-chloro-4-(trifluoromethyl)phenyl)-N-(4-fluorophenyl)-4-hydroxy-2-oxo-5,6-dihydro-2H-pyran-3-carboxamide] | D or higher | inhibition at 10 µM (Dirofilaria immitis): ≥ 50%
O=C(Nc1ccc(Cl)cc1)C1=C(O)CC(c2ccc(C(F)(F)F)cc2)OC1=O (centres unmarked) [1-5] | D or higher | 
O=C(Nc1ccccc1)C1=C(O)CC(c2ccc(C(F)(F)F)cc2)OC1=O (centres unmarked) [1-6] | D or higher | 
O=C(Nc1cccs1)C1=C(O)CC(c2ccc(C(F)(F)F)cc2)OC1=O (centres unmarked) [1-7] | D or higher | 
O=C(Nc1ccc(Oc2ccccc2)cc1)C1=C(O)CC(c2ccc(C(F)(F)F)cc2)OC1=O (centres unmarked) [1-14] | D or higher | 
O=C(Nc1ccc2c(c1)OCO2)C1=C(O)CC(c2ccc(C(F)(F)F)cc2)OC1=O (centres unmarked) [1-15] | D or higher | 
O=C(Nc1ccc(F)cc1)C1=C(O)CC(c2ccc(C(F)(F)F)nc2)OC1=O (centres unmarked) [1-21] | D or higher | rating of assessment (corrected mortality) against Laodelphax striatellus (Laodelphax striatellus): D or higher; rating of assessment (corrected mortality) against Frankliniella occidentalis [1]: D or higher
CC1(C)C(O)=C(C(=O)Nc2ccc(F)cc2)C(=O)OC1c1ccc(C(F)(F)F)cc1 (centres unmarked) [1-22] | D or higher | 
COc1ccc(NC(=S)C2=C(O)CC(c3ccc(C(F)(F)F)cc3)OC2=O)cc1 (centres unmarked) [1-31] | D or higher | 
CC1(C)C(O)=C(C(=S)Nc2ccc(F)cc2)C(=O)OC1c1ccc(C(F)(F)F)cc1 (centres unmarked) [1-67] | D or higher | 
O=C1OC(c2ccc(C(F)(F)F)cc2)C2(CCCCC2)C(O)=C1C(=S)Nc1ccc(F)cc1 (centres unmarked) [1-68, N-(4-fluorophenyl)-5-hydroxy-3-oxo-1-(4-(trifluoromethyl)phenyl)-2-oxaspiro[5.5]undec-4-en-4-carbothioamide] |  | inhibition at 10 µM (Dirofilaria immitis): ≥ 50%
CC1(C)C(O)=C(C(=S)Nc2ccc(F)cn2)C(=O)OC1c1ccc(C(F)(F)F)cc1 (centres unmarked) [1-71] |  | rating of assessment (corrected mortality) against Laodelphax striatellus (Laodelphax striatellus): D or higher
Cc1ccc(NC(=O)C2=C(O)CC(c3ccc(C(F)(F)F)cc3)OC2=O)cc1 (centres unmarked) [1-73] | D or higher | 
O=C(NC1CC1)C1=C(O)CC(c2ccc(C(F)(F)F)cc2)OC1=O (centres unmarked) [1-74] | D or higher | 
O=C(Nc1ccc(F)cc1)C1=C(O)CC(c2ccc(Cl)nc2)OC1=O (centres unmarked) [1-75] | D or higher | rating of assessment (corrected mortality) against Laodelphax striatellus (Laodelphax striatellus): D or higher; rating of assessment (corrected mortality) against Frankliniella occidentalis [1]: D or higher
O=C(Nc1ccc(F)cn1)C1=C(O)CC(c2ccc(C(F)(F)F)nc2)OC1=O (centres unmarked) [1-76] | D or higher | rating of assessment (corrected mortality) against Laodelphax striatellus (Laodelphax striatellus): D or higher
O=C(Nc1ccc(F)cn1)C1=C(O)CC(c2ccc(C(F)(F)F)cc2)OC1=O (centres unmarked) [1-77] | D or higher | rating of assessment (corrected mortality) against Frankliniella occidentalis [1]: D or higher
O=C(Nc1ccc(F)cc1)C1=C(O)CC(c2cc(-c3ccccc3)no2)OC1=O (centres unmarked) [1-78] | D or higher | 
CSc1ccc(C2CC(O)=C(C(=O)Nc3ccc(F)cc3)C(=O)O2)cc1 (centres unmarked) [1-83] | D or higher | 
C[S+]([O-])c1ccc(C2CC(O)=C(C(=O)Nc3ccc(F)cc3)C(=O)O2)cc1 (centres unmarked) [1-84] | D or higher | 
CS(=O)(=O)c1ccc(C2CC(O)=C(C(=O)Nc3ccc(F)cc3)C(=O)O2)cc1 (centres unmarked) [1-85] | D or higher | 
O=C(Nc1ccc(F)cc1)C1=C(O)CC(c2ccc(OC(F)(F)F)cc2)OC1=O (centres unmarked) [1-86] | D or higher | 
N#Cc1ccc(C2CC(O)=C(C(=O)Nc3ccc(F)cc3)C(=O)O2)cc1 (centres unmarked) [1-97] | D or higher | 
O=C(Nc1ccc(F)cc1)C1=C(O)CC(c2ccc3c(c2)OCO3)OC1=O (centres unmarked) [1-103] | D or higher | 
O=C(Nc1ccc(F)cc1)C1=C(O)CC(c2ccc([N+](=O)[O-])cc2)OC1=O (centres unmarked) [1-107] | D or higher | 
COc1ccccc1C1CC(O)=C(C(=O)Nc2ccc(F)cc2)C(=O)O1 (centres unmarked) [1-131] | D or higher | 
COc1ccccc1C1CC(O)=C(C(=O)Nc2ccc(SC(F)(F)F)cc2)C(=O)O1 (centres unmarked) [1-132] | D or higher | 
O=C(Nc1ccc(F)cc1)C1=C(O)CC(c2ccc(SC(F)(F)F)cc2)OC1=O (centres unmarked) [1-135] | D or higher | 

Reference: patent US20250072421A1, “ARYL DIHYDROPYRAN DERIVATIVE OR SALT THEREOF, PEST CONTROL AGENT CONTAINING SAME, AND METHOD FOR USE THEREOF” (ADEKA Corporation, priority 2021, published 2025)
